Molecules are shown by their SMILES.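 Briefly, cells in 96-well plates were exposed to five compound concentrations for 48 h, and endpoints were estimated by linear interpolation. At the GI50, growth is halved. TGI denotes the concentration required for complete inhibition of growth.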

Among the test systems are COLO 205 colon; A549 NSCLC; UACC-62 melanoma; OVCAR-5 ovarian; SN12C renal; ACHN renal; A498 renal; SF-539 CNS; KM12 colon; EKVX NSCLC.
What all share (experiment): DTP human tumour cell line panel, 48 h

Turning to `N#Cc1cc(S(=O)(=O)Nc2nc3cc(Cl)ccc3o2)c(SCc2ccccc2)cc1Cl`, the GI50 is 13 µM with COLO 205 colon; 14.2 µM with A549 NSCLC; 13200 nM with UACC-62 melanoma; 13000 nM with OVCAR-5 ovarian; 15400 nM with SN12C renal; 13900 nM in the experiment on ACHN renal. Moreover, the GI50 is 11500 nM in the experiment with A498 renal, 13500 nM in the experiment with SF-539 CNS and 14900 nM with KM12 colon. Moreover, the TGI is 25.7 µM with COLO 205 colon; 27.2 µM with A549 NSCLC; 25.9 µM in the experiment with UACC-62 melanoma; 25.7 µM with OVCAR-5 ovarian; 29.1 µM in the experiment with SN12C renal; 26.8 µM with ACHN renal. Further, the TGI came out at 23.6 µM in the experiment on A498 renal, 26.4 µM with SF-539 CNS and 28.1 µM with KM12 colon.

As to `O=C1OC(=O)C([Se]c2ccccc2)=C1[Se]c1ccccc1`, the TGI in the experiment on EKVX NSCLC, in the experiment on COLO 205 colon, with A549 NSCLC, in the experiment with UACC-62 melanoma, in the experiment on OVCAR-5 ovarian and in the experiment with SN12C renal was above 100 µM in each case. Moreover, the total growth inhibition concentration (TGI) with ACHN renal, with A498 renal and in the experiment on SF-539 CNS was above 100 µM throughout.

As for `CCc1ccc2c(c1)N(CCO)C1=C(C(=O)OC1)C2c1cc(OC)c(OC)c(OC)c1` (centres undefined), the GI50 is 1.17 µM in the experiment on EKVX NSCLC; 0.151 µM with COLO 205 colon; 0.236 µM in the experiment with A549 NSCLC; 182 nM in the experiment on UACC-62 melanoma; 422 nM with OVCAR-5 ovarian; 345 nM in the experiment on SN12C renal. The figures for the GI50 with ACHN renal, in the experiment with A498 renal and in the experiment on KM12 colon were 389 nM, 103 nM and 163 nM, respectively. Moreover, the TGI was above 50 µM with EKVX NSCLC; 0.437 µM with COLO 205 colon; above 50 µM in the experiment with A549 NSCLC; above 50 µM with UACC-62 melanoma; above 50 µM in the experiment with OVCAR-5 ovarian; above 50 µM with SN12C renal. Also, the TGI in the experiment on ACHN renal is above 50 µM; in the experiment on A498 renal it was 0.932 µM; in the experiment on KM12 colon it was 0.987 µM.

Take `O=C1C(=O)C2(CC1S(=O)(=O)c1ccccc1)c1ccccc1-c1ccccc12` (centres undefined): the TGI is 72.8 µM in the experiment on EKVX NSCLC; 26.1 µM in the experiment with COLO 205 colon; 63.7 µM in the experiment on A549 NSCLC; 31.9 µM in the experiment on UACC-62 melanoma; 46.5 µM in the experiment on OVCAR-5 ovarian; 78.1 µM in the experiment on SN12C renal. Moreover, the TGI in the experiment on ACHN renal is 92 µM; with A498 renal it was 34.8 µM; in the experiment on KM12 colon, 33.9 µM.

Consider `CC(=O)Oc1cc2cnc3c4cc(OC(C)=O)c(OC(C)=O)cc4ccc3c2cc1OC(C)=O`, for which the GI50 in the experiment with COLO 205 colon was 4.3 µM; in the experiment with A549 NSCLC, 3.69 µM; with UACC-62 melanoma, 979 nM; in the experiment on OVCAR-5 ovarian, 3930 nM; in the experiment with SN12C renal, 2180 nM; in the experiment on ACHN renal it was 1190 nM. Besides, the GI50 in the experiment with A498 renal is 443 nM; with SF-539 CNS, 1300 nM; in the experiment with KM12 colon it was 2470 nM. In addition, the TGI in the experiment with COLO 205 colon is above 100 µM; in the experiment on A549 NSCLC it was above 100 µM; in the experiment with UACC-62 melanoma it was 3.26 µM; in the experiment with OVCAR-5 ovarian, above 100 µM; in the experiment on SN12C renal, above 100 µM; in the experiment on ACHN renal, above 100 µM. For the same compound, the TGI is 1.84 µM with A498 renal, 4.46 µM in the experiment on SF-539 CNS and above 100 µM with KM12 colon.

Regarding `C=C1C[C@@H]2O[C@H]3[C@H]4[C@@H](CC[C@@](C)(OC(=O)CCC)[C@H]42)[C@@H](C)C(=O)O[C@@]3(C)CC[C@H]1OO`, the GI50 was 27.7 µM with EKVX NSCLC; 21.3 µM in the experiment with COLO 205 colon; 18.5 µM with A549 NSCLC; above 100000 nM with OVCAR-5 ovarian; 13700 nM with SN12C renal; 17300 nM with ACHN renal. Further, the GI50 is above 100000 nM with A498 renal, 21000 nM in the experiment on SF-539 CNS and 16400 nM with KM12 colon. The TGI in the experiment on EKVX NSCLC was 70.8 µM; with COLO 205 colon, 37.4 µM; with A549 NSCLC, 34.4 µM; with OVCAR-5 ovarian, above 100 µM; in the experiment on SN12C renal, 26.5 µM; with ACHN renal it was 31.1 µM. Also, the TGI with A498 renal was above 100 µM; in the experiment on SF-539 CNS it was 41.1 µM; in the experiment with KM12 colon, 30.9 µM.

`C1=CC2CCC1CN2CCC1CNc2ccccc21` (centres undefined): the total growth inhibition concentration (TGI) in the experiment on EKVX NSCLC, with A549 NSCLC, in the experiment with UACC-62 melanoma, in the experiment with OVCAR-5 ovarian, with SN12C renal and in the experiment on ACHN renal was above 100 µM in each case. In addition, the TGI in the experiment on A498 renal, in the experiment with SF-539 CNS and with KM12 colon was above 100 µM each time.

For `COc1ccc(C2=Nn3c(nnc3-n3nc(C)cc3C)SC2)cc1`, the GI50 with COLO 205 colon is 0.046 µM; with A549 NSCLC, 0.0765 µM; in the experiment with UACC-62 melanoma it was 46.2 nM; in the experiment on OVCAR-5 ovarian, 340 nM; in the experiment with SN12C renal, 298 nM; in the experiment on ACHN renal, 78.1 nM. Further, the 50% growth inhibitory concentration (GI50) with A498 renal is 30.3 nM; with SF-539 CNS, 23 nM; in the experiment on KM12 colon it was 57 nM. Moreover, the TGI was 0.218 µM in the experiment on COLO 205 colon; above 100 µM in the experiment on A549 NSCLC; above 100 µM in the experiment with UACC-62 melanoma; above 100 µM with OVCAR-5 ovarian; above 100 µM in the experiment with SN12C renal; above 100 µM in the experiment on ACHN renal. Moreover, the TGI is 0.207 µM in the experiment with A498 renal, 0.0594 µM in the experiment with SF-539 CNS and above 100 µM in the experiment on KM12 colon.

`COc1ccc(-c2cc(/C=C/C(=O)c3ccc(N)cc3)[nH]n2)cc1`: the GI50 in the experiment on COLO 205 colon was 1.85 µM; with A549 NSCLC it was 2.55 µM; in the experiment with UACC-62 melanoma it was 1480 nM; in the experiment on OVCAR-5 ovarian, 2060 nM; in the experiment on SN12C renal, 1890 nM; with ACHN renal it was 2010 nM. Further, the GI50 in the experiment on A498 renal was 2030 nM; in the experiment on SF-539 CNS, 1470 nM; with KM12 colon, 1540 nM. For the same compound, the TGI with COLO 205 colon was 3.45 µM; in the experiment on A549 NSCLC, 10.2 µM; with UACC-62 melanoma, 2.94 µM; in the experiment on OVCAR-5 ovarian, 4.92 µM; in the experiment on SN12C renal, 6.63 µM; in the experiment on ACHN renal, 10.6 µM. The results for the TGI in the experiment with A498 renal, with SF-539 CNS and with KM12 colon were 4.95 µM, 3.48 µM and 3.42 µM, respectively.

In the case of `COc1ccc(C)cc1NC(=S)C#N`, the TGI in the experiment with COLO 205 colon, with A549 NSCLC, with UACC-62 melanoma, in the experiment with OVCAR-5 ovarian, in the experiment on SN12C renal and in the experiment with ACHN renal was above 100 µM in each case. Also, the TGI with A498 renal, in the experiment on SF-539 CNS and in the experiment with KM12 colon was above 100 µM throughout.

For orientation: GI50 means the concentration that inhibits growth by half. What is called TGI is the concentration at which net growth stops.

For the origin of these results see PubChem BioAssay (NCI).
